This passage reports IC50 results from patent US20230286958A1, “PLASMA KALLIKREIN INHIBITORS” (Merck Sharp & Dohme LLC, priority 2020, published 2023).

Where only a bound is given, the exact number is not on record here.

One test has as its target human Factor XIa (Homo sapiens (Human), UniProt P03951). The test can be described thus: Factor XIa Assay (fluorogenic substrate GPR-AFC). It is filed as biochemical. Particulars: Factor XIa (FXIa).
A further test addresses Human plasma kallikrein (Homo sapiens (Human), UniProt P03952). Description: Kallikrein Assay (fluorogenic substrate Acetyl-K-P-R-AFC). It is filed as biochemical. Particulars: Plasma Kallikrein (PKal). The procedure, abridged:
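Ki is derived from IC50 with the Cheng-Prusoff equation, and IC50 from the inflection point of a four-parameter logistic curve. The rate of AFC release is read with 0.5 nM purified enzyme and […] substrate at room temperature or 37 °C.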

Chain of Human plasma kallikrein (P03952 391-638): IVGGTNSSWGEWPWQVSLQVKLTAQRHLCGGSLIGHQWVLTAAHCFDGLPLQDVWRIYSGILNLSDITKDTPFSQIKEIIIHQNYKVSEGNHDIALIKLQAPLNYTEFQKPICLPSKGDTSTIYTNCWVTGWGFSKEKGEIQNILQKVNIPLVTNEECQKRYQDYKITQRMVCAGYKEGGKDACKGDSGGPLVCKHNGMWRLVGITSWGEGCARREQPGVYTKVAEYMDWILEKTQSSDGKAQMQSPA
Chain of Human plasma kallikrein (P03952 20-390 partner): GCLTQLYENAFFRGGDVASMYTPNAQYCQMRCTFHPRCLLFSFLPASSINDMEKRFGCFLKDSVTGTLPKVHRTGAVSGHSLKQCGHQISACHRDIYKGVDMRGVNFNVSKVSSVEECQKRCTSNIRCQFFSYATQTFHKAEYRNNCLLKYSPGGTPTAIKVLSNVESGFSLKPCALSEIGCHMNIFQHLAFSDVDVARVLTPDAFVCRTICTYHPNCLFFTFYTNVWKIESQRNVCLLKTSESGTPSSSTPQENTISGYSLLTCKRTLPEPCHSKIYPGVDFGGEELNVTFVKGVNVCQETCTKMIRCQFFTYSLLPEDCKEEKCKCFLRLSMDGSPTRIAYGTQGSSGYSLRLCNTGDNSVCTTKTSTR
Chain of human Factor XIa (P03951 388-625 limits assumed): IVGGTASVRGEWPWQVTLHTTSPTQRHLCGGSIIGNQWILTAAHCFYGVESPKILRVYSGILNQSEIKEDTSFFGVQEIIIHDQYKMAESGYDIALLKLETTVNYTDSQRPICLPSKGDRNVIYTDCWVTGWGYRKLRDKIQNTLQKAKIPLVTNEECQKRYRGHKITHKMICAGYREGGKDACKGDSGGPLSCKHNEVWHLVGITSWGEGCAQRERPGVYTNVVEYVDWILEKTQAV
Chain of human Factor XIa (P03951 19-387 partner limits assumed): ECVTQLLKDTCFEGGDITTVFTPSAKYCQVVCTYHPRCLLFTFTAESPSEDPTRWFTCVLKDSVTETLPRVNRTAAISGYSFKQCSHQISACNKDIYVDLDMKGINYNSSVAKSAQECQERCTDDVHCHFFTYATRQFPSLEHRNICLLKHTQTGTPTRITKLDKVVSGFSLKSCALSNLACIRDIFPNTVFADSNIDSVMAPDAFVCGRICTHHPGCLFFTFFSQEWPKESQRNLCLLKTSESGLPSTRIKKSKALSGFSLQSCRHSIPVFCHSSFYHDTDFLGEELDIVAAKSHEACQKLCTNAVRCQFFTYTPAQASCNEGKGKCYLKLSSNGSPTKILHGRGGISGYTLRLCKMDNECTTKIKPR

As to `Cc1ccc(Cl)c(F)c1-c1cnc(C)c(C(=O)Nc2cnn(Cc3nnc(N4C[C@H]5C[C@H]5C4=O)c(C)c3C)c2)n1` [Example 112, 6-(3 -Chloro-2-fluoro-6-methylphenyl)-N-(1-((4,5-dimethyl-6-((1R,5S)-2-oxo-3-azabicyclo[3.1.0]hexan-3-yl)pyridazin-3-yl)methyl)-1H-pyrazol-4-yl)-3-methylpyrazine-2-carboxamide], the IC50 came out at 1200 nM against human Factor XIa and 4.8 nM against Human plasma kallikrein.

On to `Cc1cc(Cn2cc(NC(=O)c3nc(-c4c(OC(F)F)ccc(Cl)c4F)cnc3C)cn2)nnc1N1C[C@H]2C[C@H]2C1=O` [Example 113, 6-(3-Chloro-6-(difluoromethoxy)-2-fluorophenyl)-3-methyl-N-(1-((5-methyl-6-((1R,SS)-2-oxo-3-azabicyclo[3.1.0]hexan-3-yl)pyridazin-3-yl)methyl)-1H-pyrazol-4-yl)pyrazine-2-carboxamide], for which the results for the IC50 against human Factor XIa and against Human plasma kallikrein were 114 nM and 2.1 nM, respectively.

Consider `O=C(Nc1cnn(Cc2cnc(N3C[C@H]4C[C@H]4C3=O)nc2)c1)c1nc(-c2c(C(F)F)ccc(Cl)c2F)cnc1COC1CC1` [Example 116, 6-(3-Chloro-6-(difluoromethyl)-2-fluorophenyl)-3-(cyclopropoxymethyl)-N-(1-((2-((1R,5S)-2-oxo-3-azabicyclo[3.1.0]hexan-3-yl)pyrimidin-5-yl)methyl)-1H-pyrazol-4-yl)pyrazine-2-carboxamide], for which the values for the IC50 against human Factor XIa and against Human plasma kallikrein were 4380 nM and 19.1 nM, respectively.

For `Cc1ncc(-c2c(C(F)F)ccc(Cl)c2F)nc1C(=O)Nc1cnn(Cc2ncc(N3C[C@H]4C[C@H]4C3=O)cc2F)c1` [Example 138, 6-(3-Chloro-6-(difluoromethyl)-2-fluorophenyl)-N-(1-((3-fluoro-5-((1R,5S)-2-oxo-3-azabicyclo[3.1.0]hexan-3-yl)pyridin-2-yl)methyl)-1H-pyrazol-4-yl)-3-methylpyrazine-2-carboxamide], the figures for the IC50 against human Factor XIa and on Human plasma kallikrein were > 10000 nM and 47 nM, respectively.

On to `O=C(Nc1cnn(Cc2ccc(N3C[C@H]4C[C@H]4C3=O)cc2)c1)c1cncc(-c2c(C(F)F)ccc(Cl)c2F)n1` [Example 145, 6-(3-Chloro-6-(difluoromethyl)-2-fluorophenyl)-N-(1-(4-((1R,5S)-2-oxo-3-azabicyclo[3.1.0]hexan-3-yl)benzyl)-1H-pyrazol-4-yl)pyrazine-2-carboxamide], for which the IC50 was > 10000 nM against human Factor XIa and 2.4 nM against Human plasma kallikrein.

In the case of `Cc1ncc(-c2c(C(F)F)ccc(Cl)c2F)nc1C(=O)Nc1cnn(Cc2cnc(N3C[C@H]4C[C@H]4C3=O)c3c2OCO3)c1` [Example 149, 6-(3-Chloro-6-(difluoromethyl)-2-fluorophenyl)-3-methyl-N-(1-((4-((1R,5S)-2-oxo-3-azabicyclo[3.1.0]hexan-3-yl)-[1,3]dioxolo[4,5-c]pyridin-7-yl)methyl)-1H-pyrazol-4-yl)pyrazine-2-carboxamide], the IC50 is 244 nM against human Factor XIa and 0.9 nM at Human plasma kallikrein.

Turning to `Cc1nc(N2C[C@H]3C[C@H]3C2=O)c(F)cc1C(C)n1cc(NC(=O)c2cncc(-c3c(C(F)F)ccc(Cl)c3F)n2)cn1` (stereo partly shown) [Example 150, 6-(3-Chloro-6-(difluoromethyl)-2-fluorophenyl)-N-(1-(1-(5-fluoro-2-methyl-6-((1R.5S)-2-oxo-3-azabicyclo[3.1.0]hexan-3-yl)pyridin-3-yl)ethyl)-1H-pyrazol-4-yl)pyrazine-2-carboxamide], the results for the IC50 against human Factor XIa and on Human plasma kallikrein were > 10000 nM and 177 nM, respectively.

With `Cc1nc(N2C[C@H]3C[C@H]3C2=O)c(F)cc1C(C)n1cc(NC(=O)c2cncc(-c3c(C(F)F)ccc(Cl)c3F)n2)cn1` (stereo partly shown) [Example 151, 6-(3-Chloro-6-(difluoromethyl)-2-fluorophenyl)-N-(1-(1-(5-fluoro-2-methyl-6-((1R.5S)-2-oxo-3-azabicyclo[3.1.0]hexan-3-yl)pyridin-3-yl)ethyl)-1H-pyrazol-4-yl)pyrazine-2-carboxamide], the results for the IC50 at human Factor XIa and at Human plasma kallikrein were > 10000 nM and 5.8 nM, respectively.

Regarding `Cc1nc(N2C[C@H]3C[C@H]3C2=O)ncc1Cn1cc(NC(=O)c2nc(-c3c(C(F)F)ccc(Cl)c3F)cnc2CO)cn1` [Example 156, 6-(3-Chloro-6-(difluoromethyl)-2-fluorophenyl)-3-(hydroxymethyl)-N-(1-((4-methyl-2-((1R,5S)-2-oxo-3-azabicyclo[3.1.0]hexan-3-yl)pyrimidin-5-yl)methyl)-1H-pyrazol-4-yl)pyrazine-2-carboxamide], the IC50 on human Factor XIa is 162 nM; against Human plasma kallikrein, 0.9 nM.

Take `Cc1nc(N2C[C@@H]3C[C@@H]3C2=O)ncc1[C@@H](CO)n1cc(NC(=O)c2cncc(-c3c(C(F)F)ccc(Cl)c3F)n2)cn1` [Example 157, 6-(3-Chloro-6-(difluoromethyl)-2-fluorophenyl)-N-(1-((S)-2-hydroxy-1-(4-methyl-2-((1S,5R)-2-oxo-3-azabicyclo[3.1.0]hexan-3-yl)pyrimidin-5-yl)ethyl)-1H-pyrazol-4-yl)pyrazine-2-carboxamide]: the IC50 against human Factor XIa was > 10000 nM; on Human plasma kallikrein, 1020 nM.

On to `Cc1nc(N2C[C@@H]3C[C@@H]3C2=O)ncc1[C@H](CO)n1cc(NC(=O)c2cncc(-c3c(C(F)F)ccc(Cl)c3F)n2)cn1` [Example 158, 6-(3-Chloro-6-(difluoromethyl)-2-fluorophenyl)-N-(1-((R)-2-hydroxy-1-(4-methyl-2-((1S,5R)-2-oxo-3-azabicyclo[3.1.0]hexan-3-yl)pyrimidin-5-yl)ethyl)-1H-pyrazol-4-yl)pyrazine-2-carboxamide], for which the IC50 on human Factor XIa is > 10000 nM; on Human plasma kallikrein, 2720 nM.

As to `Cc1nc(N2C[C@H]3C[C@H]3C2=O)ncc1[C@@H](CO)n1cc(NC(=O)c2cncc(-c3c(C(F)F)ccc(Cl)c3F)n2)cn1` [Example 159, 6-(3-Chloro-6-(difluoromethyl)-2-fluorophenyl)-N-(1-((S)-2-hydroxy-1-(4-methyl-2-((1R,5S)-2-oxo-3-azabicyclo[3.1.0]hexan-3-yl)pyrimidin-5-yl)ethyl)-177-pyrazol-4-yl)pyrazine-2-carboxamide], the IC50 amounted to 6900 nM at human Factor XIa and 11.2 nM at Human plasma kallikrein.

With `Cc1nc(N2C[C@H]3C[C@H]3C2=O)ncc1[C@H](CO)n1cc(NC(=O)c2cncc(-c3c(C(F)F)ccc(Cl)c3F)n2)cn1` [Example 160, 6-(3-Chloro-6-(difluoromethyl)-2-fluorophenyl)-N-(1-((R)-2-hydroxy-1-(4-methyl-2-((1R,5S)-2-oxo-3-azabicyclo[3.1.0]hexan-3-yl)pyrimidin-5-yl)ethyl)-1H-pyrazol-4-yl)pyrazine-2-carboxamide], the figures for the IC50 against human Factor XIa and against Human plasma kallikrein were > 10000 nM and 249 nM, respectively.

For the compound `C[C@H](c1cnc(N2C[C@H]3C[C@H]3C2=O)nc1N)n1cc(NC(=O)c2cncc(-c3c(C(F)F)ccc(Cl)c3F)n2)cn1` [Example 170, N-(1-((R)-1-(4-Amino-2-((1R,5S)-2-oxo-3-azabicvclo[3.1.0]hexan-3-yl)pyrimidin-5-yl)ethyl)-1H-pyrazol-4-yl)-6-(3-chloro-6-(difluoromethyl)-2-fluorophenyl)pyrazine-2-carboxamide], the results for the IC50 against human Factor XIa and at Human plasma kallikrein were > 10000 nM and 20.7 nM, respectively.

In the case of `C[C@@H](c1cnc(N2C[C@H]3C[C@H]3C2=O)nc1N)n1cc(NC(=O)c2cncc(-c3c(C(F)F)ccc(Cl)c3F)n2)cn1` [Example 171, N-(1-((S)-1-(4-Amino-2-((1R,5S)-2-oxo-3-azabicyclo[3.1.0]hexan-3-yl)pyrimidin-5-yl)ethyl)-1H-pyrazol-4-yl)-6-(3-chloro-6-(difluoromethyl)-2-fluorophenyl)pyrazine-2-carboxamide], the values for the IC50 at human Factor XIa and at Human plasma kallikrein were > 10000 nM and 713 nM, respectively.

Regarding `C[C@@H](c1cnc(N2C[C@H]3C[C@H]3C2=O)nc1)n1cc(NC(=O)c2cncc(-c3c(C(F)F)ccc(Cl)c3F)n2)cn1` [Example 172, 6-(3-Chloro-6-(difluoromethyl)-2-fluorophenyl)-N-(1-((S)-1-(2-((1R,5S)-2-oxo-3-azabicyclo[3.1.0]hexan-3-yl)pyrimidin-5-yl)ethyl)-1H-pyrazol-4-yl)pyrazine-2-carboxamide], the IC50 against human Factor XIa worked out at 6730 nM; against Human plasma kallikrein it was 6.4 nM.

As to `C[C@@H](c1cnc(N2C[C@H]3C[C@H]3C2=O)nc1)n1cc(NC(=O)c2nc(-c3c(C(F)F)ccc(Cl)c3F)cnc2C(F)F)cn1` [Example 174, 6-(3-Chloro-6-(difluoromethyl)-2-fluorophenyl)-3-(difluoromethyl)-N-(1-((S)-1-(2-((1R,5S)-2-oxo-3-azabicyclo[3.1.0]hexan-3-yl)pyrimidin-5-yl)ethyl)-1H-pyrazol-4-yl)pyrazine-2-carboxamide], the IC50 against human Factor XIa is 9350 nM; against Human plasma kallikrein, 6.5 nM.

`COCc1ncc(-c2c(C(F)F)ccc(Cl)c2F)nc1C(=O)Nc1cnn([C@@H](C)c2cnc(N3C[C@H]4C[C@H]4C3=O)nc2)c1` [Example 175, 6-(3-Chloro-6-(difluoromethyl)-2-fluorophenyl)-3-(methoxymethy-((S)-1-(2-((1R,5S)-2-oxo-3-azabicyclo[3.1.0]hexan-3-yl)pyrimidin-5-yl)ethyl)-1H-pyrazol-4-yl)pyrazine-2-carboxamide]: the IC50 worked out at 3680 nM at human Factor XIa and 3 nM against Human plasma kallikrein.

Turning to `C[C@@H](c1cnc(N2C[C@H]3C[C@H]3C2=O)nc1)n1cc(NC(=O)c2nc(-c3c(C(F)F)ccc(Cl)c3F)cnc2CC(C)(C)O)cn1` [Example 180], the figures for the IC50 on human Factor XIa and on Human plasma kallikrein were 4950 nM and 7.7 nM, respectively.

As for `C[C@@H](c1cnc(N2C[C@H]3C[C@H]3C2=O)nc1)n1cc(NC(=O)c2nc(-c3c(C(F)F)ccc(Cl)c3F)cnc2C(C)(C)O)cn1` [Example 181, 6-(3-Chloro-6-(difluoromethyl)-2-fluorophenyl)-3-(2-hydroxypropan-2-yl)-N-(1-((S)-1-(2-((1R,5S)-2-oxo-3-azabicyclo[3.1.0]hexan-3-yl)pyrimidin-5-yl)ethyl)-1H-pyrazol-4-yl)pyrazine-2-carboxamide], the IC50 is > 10000 nM at human Factor XIa and 37.1 nM against Human plasma kallikrein.
